{"source": "patent EP1464336A1", "about": "“Use of tryprostatin A for the reversal of cancer drug resistance” (Humboldt-Universität zu Berlin, priority 2003, dated 2004)", "key": {"[1]": {"test_system": "drug-sensitive, parental cell line MCF-7", "assay": "Mitoxantrone accumulation assay (flow cytometry)", "assay_type": "cell-based, human", "conditions": "increasing modulator concentrations", "procedure": "(§1) Cellular mitoxantrone accumulation was determined according to the procedure described in Lage H et al., FEBS Lett 2001;503:179-84. Briefly, 4 x 10^5 cells were seeded out in 6-well plates 78 hours prior to the experiment. Incubation with mitoxantrone (0, 1,5 and 10 µg/ml) was performed for 60 minutes at 37°C and 70-80 % cellular confluence. For kinetics of intracellular enrichment of mitoxantrone, cells were exposed to 10 µg/ml mitoxantrone for 0, 5, 10 and 60 min. Cells were washed with ice-cold PBS, trypsinized and resuspended in 4 °C PBS at a concentration of 4 x 10^5 cells/ml. Intracellular fluorescence of mitoxantrone was determined by flow cytometry (Becton-Dickinson, San Jose, CA). The cells were excited at 480 nm and emission was measured at 630 nm. A minimum of 10^4 cells was analyzed for each sample. All assays were performed at least in three independent experiments, each time with triplicate wells.\n(§2) To provide confirmation that the observed resensitization to mitoxantrone of BCRP-overexpressing cells was indeed the result of BCRP inhibition by TPS-A, a mitoxantrone accumulation assay was performed. The known so-called \"multispecific\" MDR modulator GF120918, inhibiting P-gp- and BCRP activity, was used as a positive control for P-gp- and BCRP antagonism."}, "[2]": {"test_system": "BCRP-positive, atypical MDR gastric carcinoma cell line EPG85-257RNOV", "assay": "Mitoxantrone accumulation assay (flow cytometry)", "assay_type": "cell-based, human", "conditions": "10 µM TPS-A; mitoxantrone 60 min at 37 °C (Fig 4A)", "procedure": "as §1, §2"}}}
{"smiles": "COc1ccc2c(C[C@@H]3NC(=O)[C@@H]4CCCN4C3=O)c(CC=C(C)C)[nH]c2c1", "note": "[TPS-A, tryprostatin A]", "values": [{"measurement": "effect on drug accumulation", "setting": "[1]", "result": "only a weak dosage-depending effect"}, {"measurement": "increase to % of the mitoxantrone accumulation level of untreated drug-sensitive cells", "setting": "[2]", "result": 40, "unit": "%"}]}
